For one assay, the target named is T1, JAK2 (Homo sapiens, UniProt O60674).
T1 construct: host or cells: baculovirus expression system
Put plainly: Recombinant Human JAK2 Kinase Assay (TRF). In kind it is biochemical. To be noted: JAK2 Kinase Inhibition; read-out: JAK2 Potency. Summed up: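 TRF read-out: Eu-N1 PY100 anti-phosphotyrosine antibody detects product. Enzyme is baculovirus-expressed JAK2 at 15 ng/ml; substrate is a biotinyl 15-mer peptide bound to Neutravidin-coated wells. Buffer 20 mM HEPES pH 7.2, 0.2 μM ATP, 1 mM MnCl2, 0.1% BSA, 2.5% DMSO final; 20 min, RT.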

The target in the next assay is T2, ALK (Homo sapiens, UniProt Q9UM73).
T2 construct: host or cells: baculovirus expression system
As to the kind of experiment: ALK Kinase Assay (ELISA/TRF, PLC-γ substrate). In kind it is biochemical. Particulars: ALK Kinase Inhibition; read-out: ALK Potency. Summed up:
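First, plates are coated with substrate (phospholipase C-γ, 10 μg/mL, TBS). Next, 30 ng/ml ALK initiates phosphorylation for 15 min at 37° C. Then Eu-N1 PT66 antibody is added for detection, and a nonlinear dose-response fit of percent inhibition yields IC50.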
On the technique in general: An ELISA detects its analyte on a solid surface through an enzyme-linked reagent.

Bounds are passed on as bounds.

Our source for the IC50 values is patent US8471005B2 (Cephalon, Inc., priority 2008, dated 2013).

T2 sequence (Q9UM73 19-1620): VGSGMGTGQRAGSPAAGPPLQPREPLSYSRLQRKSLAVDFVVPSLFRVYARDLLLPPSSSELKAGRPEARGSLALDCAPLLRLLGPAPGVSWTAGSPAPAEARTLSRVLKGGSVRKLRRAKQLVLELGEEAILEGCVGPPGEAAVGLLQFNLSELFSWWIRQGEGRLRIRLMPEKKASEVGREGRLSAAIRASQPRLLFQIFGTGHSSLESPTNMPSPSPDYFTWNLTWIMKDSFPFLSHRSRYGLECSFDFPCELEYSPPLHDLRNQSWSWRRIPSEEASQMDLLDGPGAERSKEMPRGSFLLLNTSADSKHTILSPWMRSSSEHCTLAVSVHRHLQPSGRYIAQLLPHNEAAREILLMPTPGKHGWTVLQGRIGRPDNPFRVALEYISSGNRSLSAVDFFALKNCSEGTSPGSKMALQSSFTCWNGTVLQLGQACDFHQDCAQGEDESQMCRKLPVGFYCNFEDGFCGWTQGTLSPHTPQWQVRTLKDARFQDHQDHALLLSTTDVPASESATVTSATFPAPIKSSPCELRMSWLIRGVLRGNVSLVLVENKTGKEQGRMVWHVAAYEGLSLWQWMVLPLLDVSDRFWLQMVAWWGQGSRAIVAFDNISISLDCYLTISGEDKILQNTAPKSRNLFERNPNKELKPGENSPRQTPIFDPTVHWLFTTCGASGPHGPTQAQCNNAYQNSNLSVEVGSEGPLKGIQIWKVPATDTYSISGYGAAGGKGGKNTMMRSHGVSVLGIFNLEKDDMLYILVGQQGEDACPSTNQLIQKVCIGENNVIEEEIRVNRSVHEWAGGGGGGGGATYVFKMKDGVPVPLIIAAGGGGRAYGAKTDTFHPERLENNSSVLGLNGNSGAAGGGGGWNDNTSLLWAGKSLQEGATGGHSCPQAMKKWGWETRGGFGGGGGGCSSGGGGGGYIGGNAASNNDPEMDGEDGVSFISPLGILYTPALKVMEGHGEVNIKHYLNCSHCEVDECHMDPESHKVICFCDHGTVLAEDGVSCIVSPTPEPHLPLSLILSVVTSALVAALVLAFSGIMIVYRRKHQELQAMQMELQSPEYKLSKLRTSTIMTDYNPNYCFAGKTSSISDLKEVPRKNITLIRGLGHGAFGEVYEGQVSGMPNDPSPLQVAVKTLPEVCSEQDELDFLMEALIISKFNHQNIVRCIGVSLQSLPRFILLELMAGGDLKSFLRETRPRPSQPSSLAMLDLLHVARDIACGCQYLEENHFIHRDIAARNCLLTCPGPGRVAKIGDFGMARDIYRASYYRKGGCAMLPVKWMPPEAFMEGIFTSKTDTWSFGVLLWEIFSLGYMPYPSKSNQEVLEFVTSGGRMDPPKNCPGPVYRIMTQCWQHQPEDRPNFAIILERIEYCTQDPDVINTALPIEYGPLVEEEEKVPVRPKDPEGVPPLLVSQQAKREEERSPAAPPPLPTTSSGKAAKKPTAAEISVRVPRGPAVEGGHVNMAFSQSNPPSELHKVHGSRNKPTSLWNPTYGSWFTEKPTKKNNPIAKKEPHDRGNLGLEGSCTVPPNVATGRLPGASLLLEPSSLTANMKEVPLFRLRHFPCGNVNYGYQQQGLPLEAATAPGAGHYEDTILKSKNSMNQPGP
T1 sequence (O60674 whole entry): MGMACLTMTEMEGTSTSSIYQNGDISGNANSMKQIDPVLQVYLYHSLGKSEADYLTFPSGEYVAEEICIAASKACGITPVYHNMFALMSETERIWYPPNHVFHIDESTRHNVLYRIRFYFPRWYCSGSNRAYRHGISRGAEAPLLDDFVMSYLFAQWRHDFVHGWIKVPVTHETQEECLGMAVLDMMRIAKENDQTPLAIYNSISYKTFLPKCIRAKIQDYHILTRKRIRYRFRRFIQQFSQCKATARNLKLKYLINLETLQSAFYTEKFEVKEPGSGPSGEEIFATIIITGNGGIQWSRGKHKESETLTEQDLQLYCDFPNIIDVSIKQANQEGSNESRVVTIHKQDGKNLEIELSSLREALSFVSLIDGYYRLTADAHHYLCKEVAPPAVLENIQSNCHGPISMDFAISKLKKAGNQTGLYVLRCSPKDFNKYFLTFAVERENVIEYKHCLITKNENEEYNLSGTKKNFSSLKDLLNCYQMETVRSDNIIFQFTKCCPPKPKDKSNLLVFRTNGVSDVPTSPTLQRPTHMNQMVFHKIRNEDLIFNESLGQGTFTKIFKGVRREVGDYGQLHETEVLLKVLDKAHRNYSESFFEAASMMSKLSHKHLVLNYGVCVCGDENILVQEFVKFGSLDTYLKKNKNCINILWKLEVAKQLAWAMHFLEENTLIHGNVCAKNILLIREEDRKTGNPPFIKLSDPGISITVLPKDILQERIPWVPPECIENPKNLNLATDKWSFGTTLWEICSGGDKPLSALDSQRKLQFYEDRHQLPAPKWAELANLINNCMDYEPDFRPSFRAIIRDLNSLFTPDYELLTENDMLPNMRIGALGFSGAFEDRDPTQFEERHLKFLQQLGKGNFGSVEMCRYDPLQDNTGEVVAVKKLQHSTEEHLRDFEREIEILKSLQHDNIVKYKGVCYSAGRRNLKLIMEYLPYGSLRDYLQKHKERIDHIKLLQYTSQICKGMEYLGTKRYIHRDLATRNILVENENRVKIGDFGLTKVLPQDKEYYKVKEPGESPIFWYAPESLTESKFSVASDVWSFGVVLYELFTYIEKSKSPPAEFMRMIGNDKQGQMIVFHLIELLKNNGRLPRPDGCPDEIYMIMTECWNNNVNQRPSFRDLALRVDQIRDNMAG

On to `COc1ccc(Cl)cc1-c1ccc2cnc(Nc3ccc(C(=O)N4CCN(C)CC4)cc3)nn12` [Example 319, {4-[7-(5-Chloro-2-methoxy-phenyl)-pyrrolo[2,1-f][1,2,4]triazin-2-ylamino]-phenyl}-(4-methyl-piperazin-1-yl)-methanone], for which the IC50 is below 100 nM at JAK2 and 100 to 1000 nM at ALK.
For the molecule `CN1CCN(C(=O)c2ccc(Nc3ncc4ccc(-c5cccc(Cl)c5)n4n3)cc2)CC1` [Example 320, {4-[7-(3-Chloro-phenyl)-pyrrolo[2,1-f][1,2,4]triazin-2-ylamino]-phenyl}-(4-methyl-piperazin-1-yl)-methanone], the IC50 was below 100 nM at JAK2 and 100 to 1000 nM at ALK.
On to `CN1CCN(C(=O)c2ccc(Nc3ncc4ccc(-c5cccnc5)n4n3)cc2)CC1` [Example 321, (4-Methyl-piperazin-1-yl)-[4-(7-pyridin-3-yl-pyrrolo[2,1-f][1,2,4]triazin-2-ylamino)-phenyl]-methanone], for which the IC50 at JAK2 was below 100 nM; at ALK it was 100 to 1000 nM.
Take `COc1ccc(Cl)cc1-c1ccc2cnc(-n3cnc4cnccc43)nn12` [Example 323, 1-[7-(5-Chloro-2-methoxy-phenyl)-pyrrolo[2,1-f][1,2,4]triazin-2-yl]-1H-imidazo[4,5-c]pyridine]: the figures for the IC50 at JAK2 and at ALK were 100 to 1000 nM and 1000 to 10000 nM, respectively.
Regarding `Clc1cccc(-c2ccc3cnc(-n4cnc5cnccc54)nn23)c1` [Example 324, 1-[7-(3-Chloro-phenyl)-pyrrolo[2,1-f][1,2,4]triazin-2-yl]-1H-imidazo[4,5-c]pyridine], the IC50 at JAK2 and on ALK was 1000 to 10000 nM each time.
For the molecule `c1cncc(-c2ccc3cnc(-n4cnc5cnccc54)nn23)c1` [Example 325, 1-(7-Pyridin-3-yl-pyrrolo[2,1-f][1,2,4]triazin-2-yl)-1H-imidazo[4,5-c]pyridine], the IC50 on JAK2 and on ALK was 1000 to 10000 nM each time.
Consider `CC(=O)Nc1cc(Nc2ncc3ccc(-c4ccc(S(C)(=O)=O)cc4)n3n2)ccc1C(C)(C)C` [Example 326, N-{2-tert-Butyl-5-[7-(4-methanesulfonyl-phenyl)-pyrrolo[2,1-f][1,2,4]triazin-2-ylamino]-phenyl}-acetamide], for which the IC50 at JAK2 was below 100 nM; on ALK it was above 10000 nM.
On the same counts, the results for `COc1ccccc1-c1ccc2cnc(Nc3cccc(C(=O)N4CCOCC4)c3)nn12` [Example 327, {3-[7-(2-Methoxy-phenyl)-pyrrolo[2,1-f][1,2,4]triazin-2-ylamino]-phenyl}-morpholin-4-yl-methanone] are below 100 nM and 1000 to 10000 nM.
In the case of `COc1ccc(Cl)cc1-c1ccc2cnc(Nc3cccc(C(=O)N4CCOCC4)c3)nn12` [Example 328, {3-[7-(5-Chloro-2-methoxy-phenyl)-pyrrolo[2,1-f][1,2,4]triazin-2-ylamino]-phenyl}-morpholin-4-yl-methanone], the IC50 is below 100 nM on JAK2 and 100 to 1000 nM on ALK.
In the case of `O=C(c1cccc(Nc2ncc3ccc(-c4cccc(Cl)c4)n3n2)c1)N1CCOCC1` [Example 329, {3-[7-(3-Chloro-phenyl)-pyrrolo[2,1-f][1,2,4]triazin-2-ylamino]-phenyl}-morpholin-4-yl-methanone], the figures for the IC50 at JAK2 and at ALK were below 100 nM and 100 to 1000 nM, respectively.
On to `CS(=O)(=O)c1ccc(-c2ccc3cnc(-n4cnc5cnccc54)nn23)cc1` [Example 330, 1-[7-(4-Methanesulfonyl-phenyl)-pyrrolo[2,1-f][1,2,4]triazin-2-yl]-1H-imidazo[4,5-c]pyridine], for which the IC50 at JAK2 and at ALK was 1000 to 10000 nM throughout.
For `Oc1ccc(-c2ccc3cnc(Nc4ccc(N5CCOCC5)cc4)nn23)cn1` [Example 331, 5-[2-(4-Morpholin-4-yl-phenylamino)-pyrrolo[2,1-f][1,2,4]triazin-7-yl]-pyridin-2-ol], the IC50 is below 100 nM on JAK2 and 1000 to 10000 nM on ALK.
Consider `Oc1ccc(-c2ccc3cnc(Nc4cccc(N5CCOCC5)c4)nn23)cn1` [Example 332, 5-[2-(3-Morpholin-4-yl-phenylamino)-pyrrolo[2,1-f][1,2,4]triazin-7-yl]-pyridin-2-ol], for which the IC50 at JAK2 and on ALK was above 10000 nM each time.
With `COc1ccccc1-c1ccc2cnc(Nc3ccc(N4CCC(N5CCOCC5)CC4)cc3)nn12` [Example 334, [7-(2-Methoxy-phenyl)-pyrrolo[2,1-f][1,2,4]triazin-2-yl]-[4-(4-morpholin-4-yl-piperidin-1-yl)-phenyl]-amine], the IC50 at JAK2 and on ALK was below 100 nM in each case.
In the case of `COc1ccc(Cl)cc1-c1ccc2cnc(Nc3ccc(N4CCC(N5CCOCC5)CC4)cc3)nn12` [Example 335, [7-(5-Chloro-2-methoxy-phenyl)-pyrrolo[2,1-f][1,2,4]triazin-2-yl]-[4-(4-morpholin-4-yl-piperidin-1-yl)-phenyl]-amine], the IC50 at JAK2 is below 100 nM; on ALK it was 100 to 1000 nM.
In the case of `Clc1cccc(-c2ccc3cnc(Nc4ccc(N5CCC(N6CCOCC6)CC5)cc4)nn23)c1` [Example 336, [7-(3-Chloro-phenyl)-pyrrolo[2,1-f][1,2,4]triazin-2-yl]-[4-(4-morpholin-4-yl-piperidin-1-yl)-phenyl]-amine], the IC50 was below 100 nM at JAK2 and 100 to 1000 nM on ALK.
In the case of `c1cncc(-c2ccc3cnc(Nc4ccc(N5CCC(N6CCOCC6)CC5)cc4)nn23)c1` [Example 337, [4-(4-Morpholin-4-yl-piperidin-1-yl)-phenyl]-(7-pyridin-3-yl-pyrrolo[2,1-f][1,2,4]triazin-2-yl)-amine], the IC50 at JAK2 is below 100 nM; at ALK, 100 to 1000 nM.
On the same counts, the results for `COc1ccccc1-c1ccc2cnc(Nc3cccc(C(=O)N4CCN(C)CC4)c3)nn12` [Example 338, {3-[7-(2-Methoxy-phenyl)-pyrrolo[2,1-f][1,2,4]triazin-2-ylamino]-phenyl}-(4-methyl-piperazin-1-yl)-methanone] are below 100 nM and 100 to 1000 nM.
For the molecule `COc1ccc(Cl)cc1-c1ccc2cnc(Nc3cccc(C(=O)N4CCN(C)CC4)c3)nn12` [Example 339, {3-[7-(5-Chloro-2-methoxy-phenyl)-pyrrolo[2,1-f][1,2,4]triazin-2-ylamino]-phenyl}-(4-methyl-piperazin-1-yl)-methanone], the IC50 on JAK2 is below 100 nM; on ALK it was 100 to 1000 nM.
On to `CN1CCN(C(=O)c2cccc(Nc3ncc4ccc(-c5cccc(Cl)c5)n4n3)c2)CC1` [Example 340, {3-[7-(3-Chloro-phenyl)-pyrrolo[2,1-f][1,2,4]triazin-2-ylamino]-phenyl}-(4-methyl-piperazin-1-yl)-methanone], for which the IC50 was below 100 nM on JAK2 and 100 to 1000 nM on ALK.
On the same counts, the results for `CN1CCN(C(=O)c2cccc(Nc3ncc4ccc(-c5cccnc5)n4n3)c2)CC1` [Example 341, (4-Methyl-piperazin-1-yl)-[3-(7-pyridin-3-yl-pyrrolo[2,1-f][1,2,4]triazin-2-ylamino)-phenyl]-methanone] are below 100 nM and 1000 to 10000 nM.
`CN1CCN(C(=O)c2cccc(Nc3ncc4ccc(-c5ccc(S(C)(=O)=O)cc5)n4n3)c2)CC1` [Example 342, {3-[7-(4-Methanesulfonyl-phenyl)-pyrrolo[2,1-f][1,2,4]triazin-2-ylamino]-phenyl}-(4-methyl-piperazin-1-yl)-methanone]: the IC50 is below 100 nM at JAK2 and 1000 to 10000 nM on ALK.
Consider `COc1ccccc1-c1ccc2cnc(Nc3ccc(N4CCCC(N5CCOCC5)C4)cc3)nn12` (centres unmarked) [Example 343, [7-(2-Methoxy-phenyl)-pyrrolo[2,1-f][1,2,4]triazin-2-yl]-[4-(3-morpholin-4-yl-piperidin-1-yl)-phenyl]-amine], for which the IC50 at JAK2 and on ALK was below 100 nM throughout.
With `COc1ccc(Cl)cc1-c1ccc2cnc(Nc3ccc(N4CCCC(N5CCOCC5)C4)cc3)nn12` (centres unmarked) [Example 344, [7-(5-Chloro-2-methoxy-phenyl)-pyrrolo[2,1-f][1,2,4]triazin-2-yl]-[4-(3-morpholin-4-yl-piperidin-1-yl)-phenyl]-amine], the IC50 on JAK2 and on ALK was below 100 nM each time.
`Clc1cccc(-c2ccc3cnc(Nc4ccc(N5CCCC(N6CCOCC6)C5)cc4)nn23)c1` (centres unmarked) [Example 345, [7-(3-Chloro-phenyl)-pyrrolo[2,1-f][1,2,4]triazin-2-yl]-[4-(3-morpholin-4-yl-piperidin-1-yl)-phenyl]-amine]: the IC50 on JAK2 was below 100 nM; at ALK, 100 to 1000 nM.
In the case of `CS(=O)(=O)c1ccc(-c2ccc3cnc(Nc4ccc(N5CCCC(N6CCOCC6)C5)cc4)nn23)cc1` (centres unmarked) [Example 346, [7-(4-Methanesulfonyl-phenyl)-pyrrolo[2,1-f][1,2,4]triazin-2-yl]-[4-(3-morpholin-4-yl-piperidin-1-yl)-phenyl]-amine], the IC50 is below 100 nM at JAK2 and 100 to 1000 nM on ALK.
On the same counts, the results for `c1cncc(-c2ccc3cnc(Nc4ccc(N5CCCC(N6CCOCC6)C5)cc4)nn23)c1` (centres unmarked) [Example 347, [4-(3-Morpholin-4-yl-piperidin-1-yl)-phenyl]-(7-pyridin-3-yl-pyrrolo[2,1-f][1,2,4]triazin-2-yl)-amine] are below 100 nM and 100 to 1000 nM.
In the case of `COc1ccccc1-c1ccc2cnc(Nc3ccc(N4CCCC(N5CCN(C)CC5)C4)cc3)nn12` (centres unmarked) [Example 348, [7-(2-Methoxy-phenyl)-pyrrolo[2,1-f][1,2,4]triazin-2-yl]-{4-[3-(4-methyl-piperazin-1-yl)-piperidin-1-yl]-phenyl}-amine], the IC50 at JAK2 and on ALK was below 100 nM in each case.
